According to patent US8455519B2, “Drug active in neuropathic pain” (Aziende Chimiche Riunite Angelini Francesco A.C.R.A.F. …, priority 2007, dated 2013):

Legend:
[1] = target: T1, 5-HT1A (Homo sapiens, UniProt P08908); assay: Binding to the serotoninergic receptors; conditions: purified membranes
T1 sequence (P08908 1-422): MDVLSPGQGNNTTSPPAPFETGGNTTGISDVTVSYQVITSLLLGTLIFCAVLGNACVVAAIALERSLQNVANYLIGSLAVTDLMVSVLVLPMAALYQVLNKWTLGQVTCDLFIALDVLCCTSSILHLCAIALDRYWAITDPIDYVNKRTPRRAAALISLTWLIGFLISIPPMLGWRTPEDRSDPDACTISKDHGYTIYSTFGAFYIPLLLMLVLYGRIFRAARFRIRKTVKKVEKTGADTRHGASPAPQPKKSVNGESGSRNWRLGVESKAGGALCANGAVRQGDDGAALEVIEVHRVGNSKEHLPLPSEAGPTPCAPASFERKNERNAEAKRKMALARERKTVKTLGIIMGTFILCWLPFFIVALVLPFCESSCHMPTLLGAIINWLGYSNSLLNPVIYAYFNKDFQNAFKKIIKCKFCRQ
Procedure: (§1) Confirmation of the binding to the serotoninergic receptors was performed by means of the biochemical test on purified membranes from recombinant human cells that stably express the specific receptors or from animal tissues selected as described in particular for each type of serotoninergic receptor, in: Martin G. R. and Humphrey P. P. A. Neuropharmacol. 1994, 33:261; Hoyer D. Eur. J. Pharmacol. 1985, 118:1; Bonhaus DW et al. Br. J. Pharmacol. 1995, 115:622; Wolf WA et al. J. Neurochem. 1997, 69:1449; Boess F G et al. Neuropharmacol. 1997, 36:637; Mialet J et al. Br. J. Pharmacol. 2000; 129:771; Rees S et al. FEBS Lett. 1994, 355:242; Monsma F. J. et al. Mol. Pharmacol. 1993, 43:320; Roth BL et al. J. Pharmacol. Exp. Ther. 1994, 268: 1403; and Shearman L P et al. Am. J. Physiol. 1998, 275: C1621.
(§2) Confirmation of the binding to the serotoninergic receptors was made using purified membranes from selected animal tissues or from recombinant human cells that stably express the specific receptors, as described in: Martin G. R. and Humphrey P. P. A. Neuropharmacol. 1994, 33:261; Hoyer D. Eur. J. Pharmacol. 1985, 118:1; Bonhaus DW et al. Br. J. Pharmacol. 1995, 115:622; Wolf WA et al. J. Neurochem. 1997, 69:1449; Boess FG et al. Neuropharmacol. 1997, 36:637; Mialet J et al. Br. J. Pharmacol. 2000, 129:771; Rees S et al. FEBS Lett. 1994, 355:242; Monsma F. J. et al. Mol. Pharmacol. 1993, 43:320; Roth BL et al. J. Pharmacol. Exp. Ther. 1994, 268: 1403; and Shearman LP et al. Am. J. Physiol. 1998, 275: C1621.

[2] = target: T2, 5-HT1B (Rattus norvegicus, UniProt P28564); assay: Binding to the serotoninergic receptors; conditions: purified membranes
T2 construct: purified membranes from selected animal tissues; from tissue; host or cells: animal tissue membranes; rat brain inferred from Hoyer 1985
T2 sequence (P28564 whole entry): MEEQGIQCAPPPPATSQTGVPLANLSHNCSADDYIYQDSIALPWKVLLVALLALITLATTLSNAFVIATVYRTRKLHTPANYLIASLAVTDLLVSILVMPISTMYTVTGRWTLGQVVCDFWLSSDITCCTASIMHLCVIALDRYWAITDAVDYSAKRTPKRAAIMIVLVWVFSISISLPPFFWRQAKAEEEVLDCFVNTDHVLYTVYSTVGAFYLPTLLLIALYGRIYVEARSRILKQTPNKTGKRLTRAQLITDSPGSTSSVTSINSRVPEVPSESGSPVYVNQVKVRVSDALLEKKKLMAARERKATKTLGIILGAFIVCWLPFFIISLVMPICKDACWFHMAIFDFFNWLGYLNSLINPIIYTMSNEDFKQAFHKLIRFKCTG
Procedure: as §1, §2

[3] = target: T3, 5-HT3 (UniProt P46098); assay: Binding to the serotoninergic receptors; conditions: purified membranes
T3 sequence (P46098 1-478): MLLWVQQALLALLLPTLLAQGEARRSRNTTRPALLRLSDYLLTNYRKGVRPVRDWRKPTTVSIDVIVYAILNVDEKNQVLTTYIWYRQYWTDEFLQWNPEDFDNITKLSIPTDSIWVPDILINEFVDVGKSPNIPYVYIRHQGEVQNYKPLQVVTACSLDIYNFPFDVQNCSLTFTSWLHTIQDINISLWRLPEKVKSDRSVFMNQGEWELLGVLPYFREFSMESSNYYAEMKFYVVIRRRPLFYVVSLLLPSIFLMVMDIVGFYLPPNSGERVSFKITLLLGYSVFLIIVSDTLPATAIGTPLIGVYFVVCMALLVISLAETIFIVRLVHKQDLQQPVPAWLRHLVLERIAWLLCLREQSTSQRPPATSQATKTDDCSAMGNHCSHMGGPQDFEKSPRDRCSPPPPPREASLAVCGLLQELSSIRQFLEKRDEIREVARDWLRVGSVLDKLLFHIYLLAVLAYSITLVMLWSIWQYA
Procedure: as §1, §2

[4] = target: T4, 5-HT2B (Homo sapiens, UniProt P41595); assay: Binding to the serotoninergic receptors; conditions: purified membranes
T4 construct: expressed in transfected cells
T4 sequence (P41595 whole entry): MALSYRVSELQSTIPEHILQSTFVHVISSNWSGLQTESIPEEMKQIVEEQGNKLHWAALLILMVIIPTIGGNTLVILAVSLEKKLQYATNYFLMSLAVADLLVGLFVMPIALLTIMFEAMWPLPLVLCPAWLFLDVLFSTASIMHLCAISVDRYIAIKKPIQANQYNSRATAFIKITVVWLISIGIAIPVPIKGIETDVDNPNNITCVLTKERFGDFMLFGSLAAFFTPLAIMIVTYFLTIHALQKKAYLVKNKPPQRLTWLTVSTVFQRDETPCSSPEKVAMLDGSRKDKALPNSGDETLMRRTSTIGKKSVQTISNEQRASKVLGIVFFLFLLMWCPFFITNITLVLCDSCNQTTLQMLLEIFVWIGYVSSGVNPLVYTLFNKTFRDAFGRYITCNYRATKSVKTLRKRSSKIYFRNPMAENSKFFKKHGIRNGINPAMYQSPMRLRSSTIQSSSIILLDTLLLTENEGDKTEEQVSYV
Procedure: as §1, §2

[5] = target: T5, 5-HT5A (Homo sapiens, UniProt P47898); assay: Binding to the serotoninergic receptors; conditions: purified membranes
T5 construct: expressed in transfected cells
T5 sequence (P47898 whole entry): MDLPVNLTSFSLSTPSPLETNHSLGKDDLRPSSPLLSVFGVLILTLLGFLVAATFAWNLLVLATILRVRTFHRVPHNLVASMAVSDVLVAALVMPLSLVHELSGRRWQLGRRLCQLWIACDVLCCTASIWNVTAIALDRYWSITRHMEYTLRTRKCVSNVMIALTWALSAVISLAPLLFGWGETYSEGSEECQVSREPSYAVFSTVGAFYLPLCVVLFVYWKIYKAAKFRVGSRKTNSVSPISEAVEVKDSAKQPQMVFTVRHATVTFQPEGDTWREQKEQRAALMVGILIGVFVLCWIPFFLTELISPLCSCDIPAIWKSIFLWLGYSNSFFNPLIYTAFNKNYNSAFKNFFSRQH
Procedure: as §1, §2

[6] = target: 5-HT transporter - SERT (UniProt P31645); assay: Binding to the serotoninergic receptors; conditions: purified membranes
Procedure: as §1, §2

[7] = target: 5-HT7 (UniProt P34969); assay: Binding to the serotoninergic receptors; conditions: purified membranes
5-HT7, sequence (P34969 1-432 limits assumed): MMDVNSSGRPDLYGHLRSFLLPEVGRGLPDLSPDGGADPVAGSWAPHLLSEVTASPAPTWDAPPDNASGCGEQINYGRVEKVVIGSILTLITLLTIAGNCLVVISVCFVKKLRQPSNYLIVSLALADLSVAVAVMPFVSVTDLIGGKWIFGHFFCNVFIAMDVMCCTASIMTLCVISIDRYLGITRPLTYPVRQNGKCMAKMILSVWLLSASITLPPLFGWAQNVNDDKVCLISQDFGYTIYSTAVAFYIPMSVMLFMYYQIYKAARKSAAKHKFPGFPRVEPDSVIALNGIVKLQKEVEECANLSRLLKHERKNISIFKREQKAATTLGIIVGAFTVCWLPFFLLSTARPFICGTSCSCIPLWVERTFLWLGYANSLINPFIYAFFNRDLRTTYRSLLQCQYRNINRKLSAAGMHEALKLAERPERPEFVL
Procedure: as §1, §2

[8] = target: T6, 5-HT4 receptor (Homo sapiens, UniProt Q13639); assay: Binding to the serotoninergic receptors
T6 construct: expressed in transfected cells
T6 sequence (Q13639 1-378 isoform Q13639-5): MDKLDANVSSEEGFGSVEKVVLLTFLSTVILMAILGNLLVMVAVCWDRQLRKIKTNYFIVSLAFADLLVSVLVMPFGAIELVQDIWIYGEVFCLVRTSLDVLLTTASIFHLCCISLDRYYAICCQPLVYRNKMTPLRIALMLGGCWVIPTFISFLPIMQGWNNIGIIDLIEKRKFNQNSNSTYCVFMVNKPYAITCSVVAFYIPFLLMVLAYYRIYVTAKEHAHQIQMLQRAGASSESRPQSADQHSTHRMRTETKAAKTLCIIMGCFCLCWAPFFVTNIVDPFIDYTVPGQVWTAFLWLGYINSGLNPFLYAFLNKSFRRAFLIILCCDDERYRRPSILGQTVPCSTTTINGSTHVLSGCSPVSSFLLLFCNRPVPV
Procedure: as §1, §2

[9] = target: 5-HT6 (UniProt P50406); assay: Binding to the serotoninergic receptors; conditions: purified membranes
Procedure: as §1, §2

[10] = target: T7, 5-HT2A (Homo sapiens, UniProt P28223); assay: Binding to the serotoninergic receptors; conditions: purified membranes
T7 construct: expressed in transfected cells
T7 sequence (P28223 whole entry): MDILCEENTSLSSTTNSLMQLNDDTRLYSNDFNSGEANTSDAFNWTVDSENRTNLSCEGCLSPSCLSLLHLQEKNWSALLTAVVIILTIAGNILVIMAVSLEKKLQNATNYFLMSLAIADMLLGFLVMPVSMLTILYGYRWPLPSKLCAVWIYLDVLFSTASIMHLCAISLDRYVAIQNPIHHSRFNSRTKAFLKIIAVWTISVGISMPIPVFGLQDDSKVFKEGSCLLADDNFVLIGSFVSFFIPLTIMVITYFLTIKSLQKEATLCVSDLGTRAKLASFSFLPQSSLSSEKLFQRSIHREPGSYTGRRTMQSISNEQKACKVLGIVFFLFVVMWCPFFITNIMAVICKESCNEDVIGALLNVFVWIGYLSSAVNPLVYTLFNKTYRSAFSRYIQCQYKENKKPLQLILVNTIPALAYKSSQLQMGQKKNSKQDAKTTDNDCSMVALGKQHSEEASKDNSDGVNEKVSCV
Procedure: as §1, §2

[11] = target: T8, 5-HT2C (UniProt P28335); assay: Binding to the serotoninergic receptors; conditions: purified membranes
T8 sequence (P28335 1-458): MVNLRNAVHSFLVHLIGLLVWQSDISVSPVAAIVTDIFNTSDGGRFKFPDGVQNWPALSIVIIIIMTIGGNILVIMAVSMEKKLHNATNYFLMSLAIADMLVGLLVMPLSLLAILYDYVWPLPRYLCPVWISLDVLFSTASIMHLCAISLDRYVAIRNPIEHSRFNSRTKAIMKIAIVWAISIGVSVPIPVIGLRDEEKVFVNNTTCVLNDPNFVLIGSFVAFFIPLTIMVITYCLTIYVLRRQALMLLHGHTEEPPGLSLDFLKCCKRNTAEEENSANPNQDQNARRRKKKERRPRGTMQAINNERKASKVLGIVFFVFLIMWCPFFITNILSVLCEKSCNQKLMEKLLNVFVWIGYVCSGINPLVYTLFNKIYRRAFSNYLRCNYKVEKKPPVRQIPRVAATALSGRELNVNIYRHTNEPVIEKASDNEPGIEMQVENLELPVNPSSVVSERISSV
Procedure: as §1, §2

[12] = target: T9, hERG ion channel (Homo sapiens, UniProt Q12809); assay: cell-based
T9 construct: expressed in transfected cells; host or cells: HEK-293
T9 sequence (Q12809 whole entry): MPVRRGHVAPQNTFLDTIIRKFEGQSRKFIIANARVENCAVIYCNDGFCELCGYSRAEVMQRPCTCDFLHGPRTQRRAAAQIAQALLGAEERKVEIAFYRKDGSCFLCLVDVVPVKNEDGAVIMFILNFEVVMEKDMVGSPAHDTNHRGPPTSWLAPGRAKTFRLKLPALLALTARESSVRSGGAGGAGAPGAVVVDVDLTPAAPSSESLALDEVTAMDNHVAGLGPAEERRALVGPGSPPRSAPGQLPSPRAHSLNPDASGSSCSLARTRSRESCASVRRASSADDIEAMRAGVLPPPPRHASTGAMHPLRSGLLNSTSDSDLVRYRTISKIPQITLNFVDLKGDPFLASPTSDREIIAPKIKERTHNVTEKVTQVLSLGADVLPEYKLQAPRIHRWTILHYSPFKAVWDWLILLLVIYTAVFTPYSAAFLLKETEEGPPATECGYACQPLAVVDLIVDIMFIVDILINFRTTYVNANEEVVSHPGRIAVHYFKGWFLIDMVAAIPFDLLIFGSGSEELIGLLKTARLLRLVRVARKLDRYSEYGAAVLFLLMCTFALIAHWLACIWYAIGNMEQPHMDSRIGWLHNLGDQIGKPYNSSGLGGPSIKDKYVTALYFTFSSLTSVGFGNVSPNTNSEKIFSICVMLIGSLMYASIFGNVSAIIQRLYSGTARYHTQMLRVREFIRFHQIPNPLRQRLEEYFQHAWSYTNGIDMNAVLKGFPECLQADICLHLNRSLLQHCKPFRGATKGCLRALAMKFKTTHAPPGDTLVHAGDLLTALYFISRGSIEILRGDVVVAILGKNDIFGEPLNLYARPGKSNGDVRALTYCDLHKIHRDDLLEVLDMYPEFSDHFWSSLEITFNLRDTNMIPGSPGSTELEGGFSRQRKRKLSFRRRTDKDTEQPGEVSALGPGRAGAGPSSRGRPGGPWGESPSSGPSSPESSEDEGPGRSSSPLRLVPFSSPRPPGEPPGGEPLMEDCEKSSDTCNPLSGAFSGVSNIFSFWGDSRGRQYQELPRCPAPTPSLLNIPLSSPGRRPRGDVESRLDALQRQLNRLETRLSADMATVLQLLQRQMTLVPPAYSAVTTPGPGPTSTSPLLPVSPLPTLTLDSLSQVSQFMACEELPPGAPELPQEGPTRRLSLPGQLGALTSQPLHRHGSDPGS
Description: Confirmation of interaction with the potassium channels was made by means of a functional cell test (patch clamp) that uses HEK-293 recombinant human cells that stably express the hERG ion channel, as described in Zhou Z. et al. Biophys. J. 1998; 74:230.
Confirmation of interaction with the potassium channels was made by means of the patch clamp test described in Zhou Z. et al. Biophys. J. 1998; 74:230 using the recombinant human cell line HEK-293, which stably expresses the hERG ion channel.

**Q.** What does the source list for `CC(C)n1nc(C(=O)NCC2CCN(CCc3ccc(C(=O)O)cc3)CC2)c2ccccc21` [Compound 1, 4-{2-[4-({[(1-Isopropyl-1H-indazol-3-yl)carbonyl]amino}methyl)piperidin-1-yl]ethyl}benzoic acid]?
**A.** melting point: 179 to 181 °C; IC50 [1]: > 10 µM; IC50 [2]: > 10 µM; IC50 [3]: > 10 µM; IC50 [4]: > 10 µM; IC50 [5]: > 10 µM; IC50 [6]: > 10 µM; IC50 [7]: > 10 µM; IC50 [8]: 0.0008 µM; inhibition of binding to the 5-HT4 receptor (selectivity, in words) ([8]; versus the other serotoninergic receptors): selective inhibition of binding to the 5-HT4 receptor; IC50 [9]: > 10 µM; IC50 [10]: > 10 µM; IC50 [11]: > 10 µM; IC50 [12]: > 50 µM; inhibition at 0.01 µM ([12]; human): 0%; inhibition at 0.1 µM ([12]; human): 0%; inhibition at 1 µM ([12]; human): 0.9%; inhibition at 10 µM ([12]; human): 6.5%; inhibition at 50 µM ([12]; human): 18.8%
